# “Also recorded” adds a separate entry of the source. Structures can show the parent of a compound that is named as a salt. Where two headings read alike, the source gives them in different places. Marks after values point to notes of the source that are not given here.
# Columns and labels:
# [1] = tested on: SK-N-SH neuroblastoma xenografts; assay: [125I]MIBG tumor uptake in mice bearing SK-N-SH neuroblastoma xenografts; assay type: in vivo, BALB/c nu/nu mice; details: for Effect on [125I]MIBG accumulation in neuroblastoma xenografts (in words): inhibitor IP 30 min before [125I]MIBG, tissues 1 h after, doses as in Fig. 6
# Procedure: (§1) Female athymic BALB/c nu/nu mice were bred in the animal facility of the Netherlands Cancer Institute. Experiments were performed in accordance with the national regulations for animal experimentations and approved by the local animal welfare committee. Subcutaneous (s.c.) neuroblastoma tumors consisted of either first passages of intrasplenic-induced SK-N-SH xenografts or later passages from s.c. propagation of the xenograft. […] The tumor volume doubling time was on average 5 days. The toxicity of each monoamine transporter inhibitor was assessed in 2 to 5 non-tumor-bearing nude mice by 1 h careful observation following intraperitoneal (IP) injection of the monoamine transporter inhibitor. Applied inhibitor doses were based on earlier studies (summarized in Electronic Supplementary Material: Table I) and varied from 2 to 50 mg/kg. Provided that no toxicity was observed, plasma of these animals was subsequently analyzed in the ex vivo bioassay described below. […]. First, mice were treated IP with either a monoamine transporter inhibitor or sodium chloride (control). Thirty minutes later, they received an injection in the tail vein with 1 μg MIBG spiked with 4.0–8.0 kBq [^125I]MIBG. One hour after administration of the radiopharmaceutical, the animals were bled from the carotid artery under ether anesthesia and dissected. Tumors and tissues of interest were blotted to remove adhering blood, weighted, and gamma counted. The [^125I]MIBG tissue levels were expressed as the percentage of the injected radioactivity dose per gram tissue. Mice bearing PC12 pheochromocytoma xenografts induced by direct s.c. injections of PC12 cells were used in similar uptake and inhibition experiments.
# [2] = tested on: PC12 pheochromocytoma xenografts; assay: [125I]MIBG tumor uptake in mice bearing PC12 pheochromocytoma xenografts; assay type: in vivo; details: for Effect on tumor MIBG uptake in PC12 pheochromocytoma xenografts (in words): data not shown
# Procedure: as §1
# platelet function = details: plasma concentrations that will inhibit SERT; cited from earlier work
# [3] = cited from earlier work
# [4] = tested on: tryptophan or 5-hydroxytryptophan induced symptoms; details: mice, assay type I, cited from earlier work
# [5] = parameters: method as in ref (3) (a number printed in a supplementary file, which may have a reference list of its own: not looked up in the article's list); details: mice, 24 mg/kg i.v., fifteen min after administration; ref (3); cited from earlier work
# [6] = molecular target: T1, human SK-N-SH neuroblastoma cells (uptake via NET) (Homo sapiens, UniProt P23975); assay: [125I]MIBG uptake inhibition in cultured SK-N-SH neuroblastoma cells; assay type: cell-based
# T1 construct: host or cells: SK-N-SH human neuroblastoma cells
# T1 sequence (P23975 whole entry): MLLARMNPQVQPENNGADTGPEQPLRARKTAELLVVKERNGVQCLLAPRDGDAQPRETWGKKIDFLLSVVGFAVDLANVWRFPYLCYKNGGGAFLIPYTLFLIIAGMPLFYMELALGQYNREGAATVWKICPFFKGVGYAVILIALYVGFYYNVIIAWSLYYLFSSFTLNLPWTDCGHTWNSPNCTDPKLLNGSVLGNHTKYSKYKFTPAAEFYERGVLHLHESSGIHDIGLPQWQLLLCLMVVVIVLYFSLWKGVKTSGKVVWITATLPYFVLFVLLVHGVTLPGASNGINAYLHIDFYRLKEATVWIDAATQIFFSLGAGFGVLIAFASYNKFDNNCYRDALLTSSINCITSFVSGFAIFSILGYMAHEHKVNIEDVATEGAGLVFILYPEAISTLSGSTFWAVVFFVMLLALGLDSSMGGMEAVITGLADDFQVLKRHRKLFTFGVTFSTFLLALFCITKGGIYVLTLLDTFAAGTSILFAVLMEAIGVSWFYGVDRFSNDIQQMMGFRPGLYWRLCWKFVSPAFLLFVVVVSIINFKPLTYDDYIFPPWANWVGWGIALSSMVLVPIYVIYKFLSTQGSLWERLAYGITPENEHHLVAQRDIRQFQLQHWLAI
# NET = molecular target: T2, NET (Homo sapiens, UniProt P23975); assay: [125I]MIBG uptake and its inhibition in NET-transfected HEK293 cells (HEK-NET); assay type: cell-based
# T2 construct: host or cells: HEK293 (ATCC CRL-3216), transient transfection
# T2 sequence (P23975 whole entry): as above
# [7] = molecular target: T3, human platelets (uptake via SERT) (Homo sapiens, UniProt P31645); assay: [125I]MIBG uptake inhibition in isolated human platelets; assay type: cell-based
# T3 construct: endogenous in cells; host or cells: human platelets in platelet-rich plasma from patients with polycythemia vera or secondary polycythemia
# T3 sequence (P31645 whole entry): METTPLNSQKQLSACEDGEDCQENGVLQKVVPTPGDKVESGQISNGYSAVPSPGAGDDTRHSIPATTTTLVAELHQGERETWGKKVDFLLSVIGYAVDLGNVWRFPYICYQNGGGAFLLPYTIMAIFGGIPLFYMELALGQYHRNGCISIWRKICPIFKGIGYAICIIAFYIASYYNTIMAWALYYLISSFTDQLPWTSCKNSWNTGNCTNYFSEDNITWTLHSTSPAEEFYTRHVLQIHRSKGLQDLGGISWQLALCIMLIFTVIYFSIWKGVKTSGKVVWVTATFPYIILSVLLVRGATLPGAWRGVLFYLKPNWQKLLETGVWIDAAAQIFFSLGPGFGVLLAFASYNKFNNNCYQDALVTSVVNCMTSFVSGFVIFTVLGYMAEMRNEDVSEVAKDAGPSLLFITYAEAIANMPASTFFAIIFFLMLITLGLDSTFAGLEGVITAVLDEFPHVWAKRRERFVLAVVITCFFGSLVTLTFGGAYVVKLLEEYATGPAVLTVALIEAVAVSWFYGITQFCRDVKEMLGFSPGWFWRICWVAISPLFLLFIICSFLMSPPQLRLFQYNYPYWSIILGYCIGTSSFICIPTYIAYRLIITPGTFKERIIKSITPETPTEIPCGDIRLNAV
# [8] = molecular target: T3, human platelets (uptake via SERT); assay: [3H]serotonin uptake inhibition in isolated human platelets; assay type: cell-based; details: 15 min
# SERT [9] = molecular target: T4, SERT (Homo sapiens, UniProt P31645); assay type: cell-based
# T4 construct: host or cells: HEK293 (ATCC CRL-3216), transient transfection
# T4 sequence (P31645 whole entry): as above
# SERT [10] = details: cited from earlier work
# [11] = tested on: amphetamine-stimulated locomotor activity; parameters: method as in ref (8) (a number printed in a supplementary file, which may have a reference list of its own: not looked up in the article's list); details: mice, i.p., assay type IV; ref (8); cited from earlier work
# [12] = [125I]MIBG as substrate, HEK-NET
# [13] = [125I]MIBG as substrate, HEK-SERT
smiles,measurement,setting,value
"CN(C)CCCC1(c2ccc(F)cc2)OCc2cc(C#N)ccc21 (centres unmarked) [Citalopram, citalopram-HBr]",Effect on [125I]MIBG accumulation in neuroblastoma xenografts (in words),[1],not significantly affected
same,Effect on tumor MIBG uptake in PC12 pheochromocytoma xenografts (in words),[2],no significant difference
same,Effect on platelet function (in words),platelet function,no effect on platelet function
same,Plasma half-life,[3]; after oral ingestion,33 to 54 h
same,Time to maximum plasma drug levels,[3]; after oral ingestion,≤ 4 h
same,Absorption after oral ingestion (in words),[3],completely absorbed
same,50 % effective dose,"[4]; i.p., ref (1)",0.9^c mg/kg
same,50 % effective dose,"[4]; oral, ref (2)",1.2^c mg/kg
same,Plasma level,[5],6 µM
"CNCCC(Oc1ccc(C(F)(F)F)cc1)c1ccccc1 (centres unmarked) [Fluoxetine, fluoxetine-HCl]",Elimination half-life,[3],24 to 96 h
"NCCC(Oc1ccc(C(F)(F)F)cc1)c1ccccc1 (centres unmarked) [Norfluoxetine, norfluoxetine-HCl]",IC50,"[6]; 10^−8 M substrate, 37 °C, 4 h, read-out: IC50 of uptake inhibition, SK-N-SH, [125I]MIBG",2.76 µM
same,Elimination half-life,[3],170 to 360 h
"COCCCC/C(=N\OCCN)c1ccc(C(F)(F)F)cc1 [Fluvoxamine, fluvoxamine-maleate]",Inhibition of [125I]MIBG uptake in HEK-NET cells (in words),"NET; 1 h, substrate 10^−6 M",no significant inhibitory effect at low concentrations
same,Effect on [125I]MIBG accumulation in neuroblastoma xenografts (in words),[1],no effect; also recorded: not significantly affected
same,Inhibition of [125I]MIBG uptake in human platelets (in words),"[7]; co-incubation, 4 h","effective, inhibitor concentration-dependent inhibition"
same,Reduction of pheochromocytoma-associated radioactivity,"[2]; PC12 xenografts, p < 0.002",64%
same,Inhibition of [3H]serotonin uptake in human platelets (in words),[8]; co-incubation,"effective, inhibitor concentration-dependent inhibition"
same,50 % effective dose,"[4]; oral, ref (2)",13^c mg/kg
same,Inhibition of [125I]MIBG uptake in HEK-SERT cells (in words),"SERT [9]; 1 h, substrate 10^−6 M",potently inhibited
"N=C(N)NCc1cccc([131I])c1 [MIBG, meta-iodobenzylguanidine]","Nonspecific uptake, share of total uptake","NET; NET-transfected cells, substrate concentration 10^−5 M",33%
same,Catalytic efficiency (ratio Vmax/Km),NET; [12],0.045
same,Vmax,NET; [12],0.022 μmol/mg protein/min
same,Total uptake (percentage of added radioactivity),"[7]; control platelet samples without SSRIs, MIBG, n = 17",23.6 ± 3.6%
same,Nonspecific uptake (percentage of controls),"[7]; platelets, MIBG",12.3 ± 2.5%
same,"Nonspecific uptake, share of total uptake","SERT [9]; SERT-transfected cells, substrate concentration 10^−5 M",22%
same,Catalytic efficiency (ratio Vmax/Km),SERT [9]; [13],0.0077
same,Vmax,SERT [9]; [13],0.074 μmol/mg protein/min
"CC(N)C(=O)OC(C)(C)Cc1ccc(Cl)cc1 (centres unmarked) [Alaproclate, alaproclate-HCl]",IC50,"[7]; 10^−8 M substrate, 37 °C, 4 h",0.038 µM
same,IC50,[6],43.4 µM
same,"Selectivity factor, IC50 ratio",[6],1158
same,IC50,"[8]; 10^−8 M substrate, 37 °C",0.516 µM
"CN(C)CCCN1c2ccccc2CCc2ccccc21 [Imipramine, imipramine-HCl]",Inhibition of [125I]MIBG uptake in human platelets (in words),[7],able to inhibit
same,Effect on MIBG uptake in neuroblastoma cells (in words),[6],profound inhibitory effect
"N=C(N)NCc1cccc(I)c1 [MIBG, meta-iodobenzylguanidine]",Km,"NET; [125I]MIBG as substrate, HEK-NET, 1 h incubation",0.49 µM
same,Km,"SERT [9]; [125I]MIBG as substrate, HEK-SERT, 1 h incubation",9.7 µM
CNCCCC1(c2ccc(F)cc2)OCc2cc(C#N)ccc21 (centres unmarked) [desmethylcitalopram],Potency and selectivity in inhibiting SERT in vitro compared with citalopram (in words),SERT [10],only slightly less potent and selective than citalopram
"CNCCCN1c2ccccc2CCc2ccccc21 [Desipramine, desipramine-HCl]",Decrease of [125I]MIBG accumulation in neuroblastoma xenografts,[1]; 20 mg/kg IP 30 min before [125I]MIBG,60%
same,Effect on [125I]MIBG accumulation in neuroblastoma xenografts (in words),[1],profoundly decreased
same,Effect on tumor MIBG uptake in PC12 pheochromocytoma xenografts (in words),[2],same reduction of MIBG uptake as seen in SK-N-SH neuroblastoma xenografts
same,50 % effective dose,"[4]; i.p., ref (1)",>39^c mg/kg
same,50 % effective dose,"[4]; oral, ref (2, 4, 7)",20 – 320^c mg/kg
same,Reported effective dose (cell not marked as 50 % effective dose),[11],5 to 36 mg/kg
"Fc1ccc([C@@H]2CCNC[C@H]2COc2ccc3c(c2)OCO3)cc1 [Paroxetine, paroxetine-HCl]",Effect on [125I]MIBG accumulation in neuroblastoma xenografts (in words),[1],no effect; also recorded: not significantly affected
same,Bioavailability,[3]; extensive first-pass metabolism,approximately 50%
same,50 % effective dose,"[4]; i.p., ref (1)",0.2^c mg/kg
"CN[C@H]1CC[C@@H](c2ccc(Cl)c(Cl)c2)c2ccccc21 [Sertraline, sertraline-HCl]",Effect on [125I]MIBG accumulation in neuroblastoma xenografts (in words),[1],not significantly affected
same,Effect on tumor MIBG uptake in PC12 pheochromocytoma xenografts (in words),[2],no significant difference
same,Fraction absorbed after oral ingestion,[3],44%
same,50 % effective dose,"[4]; i.p., ref (1)",1.5^c mg/kg
same,50 % effective dose,"[4]; oral, ref (2)",1.0^c mg/kg

# Reference: PMC7343696 (EJNMMI Research, 2020)
